Measured values from US10342480B2, “Magnetoencephalography biomarkers of GABA-B agonist drug activity in autism spectrum disorders” (THE CHILDREN'S HOSPITAL OF PHILADELPHIA, priority 2013, dated 2019).

What was measured:
baseline gamma power = settings: NMDAR antagonists; in vivo LFP and EEG recordings in awake rodents; cited from earlier work
[1] = system: auditory brain activity (M100 latency, gamma-band ITC, steady state gamma) in autism; assay: Magnetoencephalography (MEG) of auditory responses at baseline and 12 weeks after treatment, single subject from clinical trial; type: in vivo, human
Protocol: FIG. 5 provides graphs of M100 latency in autism in response to STX209, showing baseline and post-treatment.
To measure M100 STG latency, a 1 Hz (6 dB/octave, forward) to 40 Hz (48 dB/octave, zero-phase) bandpass filter was applied and left and right M100 STG peak latency (measured in nano-Ampere-meters, nAm) was calculated from the largest point in the M100 scoring window (90 to 190 ms) using in-house MatLab software.
The calculation of single-trial phase and magnitude for the left and right STG sources used a modification of procedures (Hoechstetter et al. (2004) Brain Topogr, 16:233-8.) where in each participant the derived source model was applied to the raw unfiltered data. Transformation from the time domain to the time-frequency domain used complex demodulation procedures (Papp et al. (1977) Biomed Sci Instrum, 13:135-45) implemented in BESA 5.2, using frequencies between 4 and 80 Hz, in steps of 2 Hz.1 Continuous data were analyzed relative to the tone onset every 25 ms, utilizing +/−39.4 ms and +/−2.83 Hz (full width at half maximum parameters) of contiguous data at each 25 ms step. Time-frequency measures were computed from −400 to 400 ms relative to stimulus onset. For evoked activity, background activity at each frequency (average power −400 to −100 ms) was calculated and subtracted as a function of frequency. In addition to evoked activity, for each time-frequency bin, a measure of phase-locking referred to as inter-trial coherence was computed as
[formula] where the sum is over all N trials, and Ø (k) is the phase of the signal in the k^th trial. Inter-trial coherence (ITC) is a normalized measure with ITC=1 reflecting no phase variability and ITC=0 reflecting maximal phase variability across trials (Lachaux et al. (1999) Hum. Brain Mapp, 8:194-208). Group Comparisons
A single subject from a recent phase/T clinical trial of STX209 (arbaclofen), a […] agonist, underwent MEG at baseline and at 12 weeks after treatment. […] Indeed, a reduction in 100 ms latency for 4 stimuli in both hemispheres was observed.

CNC1(c2ccccc2Cl)CCCCC1=O (stereo not drawn) [ketamine]
baseline gamma power (baseline gamma power): dose-dependent increase in baseline gamma power

c1ccc(C2(N3CCCCC3)CCCCC2)cc1 [PCP]
baseline gamma power (baseline gamma power): dose-dependent increase in baseline gamma power

C[C@]12N[C@H](Cc3ccccc31)c1ccccc12 [MK-801]
baseline gamma power (baseline gamma power): dose-dependent increase in baseline gamma power

NC[C@H](CC(=O)O)c1ccc(Cl)cc1 [STX209, arbaclofen]
auditory M100 latency ([1]; MEG at baseline vs 12 weeks after treatment, 4 stimuli, both hemispheres, FIG. 5): shortened post-treatment | gamma-band inter-trial coherence (ITC) ([1]; MEG at baseline vs 12 weeks after treatment, both hemispheres, FIG. 6): gamma band ITC was restored after treatment | steady state gamma power ([1]; baseline vs post-treatment, elicited by AM tone, driven at 40 Hz, FIG. 7): boosted post-treatment
